Target: human HPK1 (MAP4K1) (Homo sapiens (Human), UniProt Q92918)
Experiment: HPK1 IC50 Assay (TR-FRET peptide phosphorylation)
Assay type: biochemical
Method in brief: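 Readout: TR-FRET (665 nm/620 nm) after EDTA stop, detecting STK S1 peptide (1 μM) phosphorylation by 0.15 nM HPK1 kinase domain, ATP-pre-activated, at 10 μM ATP over 3 h, 25° C, pH 7.0. IC50s from four-parameter variable-slope fits, normalized to staurosporine and DMSO, averaged geometrically.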

[1] = recombinant HPK1 kinase domain 0.15 nM, 10 μM ATP, 1 μM STK S1 peptide, geometric mean of multiple experiments

Sequence of human HPK1 (MAP4K1) (Q92918 17-274): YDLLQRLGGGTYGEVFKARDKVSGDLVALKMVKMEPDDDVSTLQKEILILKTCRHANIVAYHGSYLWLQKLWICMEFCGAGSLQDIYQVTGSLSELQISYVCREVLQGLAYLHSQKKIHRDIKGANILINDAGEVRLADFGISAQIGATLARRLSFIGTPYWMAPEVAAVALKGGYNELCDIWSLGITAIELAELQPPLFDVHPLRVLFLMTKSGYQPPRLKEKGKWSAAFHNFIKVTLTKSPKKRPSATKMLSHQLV

| Structure (SMILES) | IC50 [1] | IC50 (0.15 nM HPK1, 10 μM ATP, 1 μM STK S1 peptide substrate, geometric mean) |
| --- | --- | --- |
| Cc1ccc(Nc2nc(-c3ccc4c(c3)N([C@H]3C[C@@H](N5CCCCC5)C3)C(=O)C4(C)C)cc3ncn(C(C)C)c23)cc1C(=O)NCC(F)F [Example 20] | 0.05 nM | – |
| CCn1cnc2cc(-c3ccc4c(c3)N([C@H]3C[C@@H](N5CCCCC5)C3)C(=O)C43CCN(C(C)=O)CC3)nc(Nc3cc(C(=O)NC(C)C)c(C)cc3F)c21 [Example 54] | 0.4 nM | – |
| CCn1cnc2cc(-c3ccc4c(c3)N([C@H]3C[C@@H](NC(=O)C(C)(C)C)C3)C(=O)C4(C)C)nc(Nc3ccc(C)c(C(N)=O)c3)c21 [Example 133] | 0.9 nM | – |
| CNC(=O)c1cc(Nc2nc(-c3ccc4c(c3)N([C@H]3C[C@@H](N5CC(C)(C)CC(C)(C)C5)C3)C(=O)C43CCN(C(C)=O)CC3)cc3ncn(C4CC4)c23)ccc1C [Example 160] | 0.08 nM | – |
| CNC(=O)c1cc(Nc2nc(-c3ccc4c(c3)N([C@H]3C[C@@H](N5CCCCC5)C3)CC4(C)C)cc3ncn(C(C)C)c23)ccc1C [Example 57] | 0.2 nM | – |
| Cc1c(C(=O)NC2(C(F)F)CC2)cc(Nc2nc(-c3cnc4c(c3)N([C@H]3C[C@@](C)(N5CC6CCC(C6)C5)C3)C(=O)C4(C)C)cc3ncn(C(C)C)c23)c(F)c1F [Example 230, 5-((6-(1-((1s,3s)-3-(3-Azabicyclo[3.2.1]octan-3-yl)-3-methylcyclobutyl)-3,3-dimethyl-2-oxo-2,3-dihydro-1H-pyrrolo[3,2-b]pyridin-6-yl)-3-isopropyl-3H-imidazo[4,5-c]pyridin-4-yl)amino)-N-(1-(difluoromethyl)cyclopropyl)-3,4-difluoro-2-methylbenzamide] | 0.1 nM | – |
| CC(C)n1cnc2cc(-c3cnc4c(c3)N([C@H]3C[C@@](C)(N5CCCCCC5)C3)C(=O)C4(C)C)nc(Nc3cc(C(=O)NC4(C(F)F)CC4)c(Cl)c(F)c3F)c21 [Example 226, 5-((6-(1-((1s,3s)-3-(Azepan-1-yl)-3-methylcyclobutyl)-3,3-dimethyl-2-oxo-2,3-dihydro-1H-pyrrolo[3,2-b]pyridin-6-yl)-3-isopropyl-3H-imidazo[4,5-c]pyridin-4-yl)amino)-2-chloro-N-(1-(difluoromethyl)cyclopropyl)-3,4-difluorobenzamide] | 0.1 nM | – |
| CNC(=O)c1cc(Nc2nc(-c3ccc4c(c3)N([C@H]3C[C@@H](N5CC6C(C5)C6(F)F)C3)C(=O)C43CCN(C4COC4)CC3)cc3ncn(C(C)C)c23)c(F)cc1C (stereo partly shown) [Example 70] | 0.7 nM | – |
| CNC(=O)c1cc(Nc2nc(-c3ccc4c(c3)N([C@H]3C[C@@H](N5CCCCC5)C3)C(=O)C43CCN(C(=O)C(C)(C)O)CC3)cc3ncn(C(C)C)c23)ccc1C [Example 146, 5-((6-(1′-(2-hydroxy-2-methylpropanoyl)-2-oxo-1-((1s,3s)-3-(piperidin-1-yl)cyclobutyl)spiro[indoline-3,4′-piperidin]-6-yl)-3-isopropyl-3H-imidazo[4,5-c]pyridin-4-yl)amino)-N,2-dimethylbenzamide] | 0.1 nM | – |
| CNC(=O)c1cc(Nc2nc(-c3ccc4c(c3)N([C@H]3C[C@@H](N5C[C@H]6CC[C@@H]5C6)C3)C(=O)C43CCN(C(=O)C45CC(C4)C5)CC3)cc3ncn(C4CC4)c23)ccc1C [Example 43] | 0.08 nM | – |
| CC(=O)N1CCC2(CC1)C(=O)N([C@H]1C[C@@H](N3CCCCC3)C1)c1cc(-c3cc4ncn(C(C)C)c4c(Nc4cc(C(=O)NC(C)(C)C)c(C)cc4F)n3)ccc12 [Example 59] | 0.3 nM | – |
| CC(C)n1cnc2cc(-c3cnc4c(c3)N([C@H]3C[C@@](C)(N5CCC6CC6C5)C3)C(=O)C4(C)C)nc(Nc3cc(C(=O)NC4(C(F)F)CC4)c(Cl)c(F)c3F)c21 (stereo partly shown) [Example 225, 5-((6-(1-((1s,3s)-3-(3-Azabicyclo[4.1.0]heptan-3-yl)-3-methylcyclobutyl)-3,3-dimethyl-2-oxo-2,3-dihydro-1H-pyrrolo[3,2-b]pyridin-6-yl)-3-isopropyl-3H-imidazo[4,5-c]pyridin-4-yl)amino)-2-chloro-N-(1-(difluoromethyl)cyclopropyl)-3,4-difluorobenzamide] | 0.08 nM | – |
| CC[C@]1(N2CCCCC2)C[C@@H](N2C(=O)C(C)(C)c3ncc(-c4cc5ncn(C(C)C)c5c(Nc5cc(C(=O)NC6(C(F)F)CC6)c(C)cc5F)n4)cc32)C1 [Example 213, N-(1-(Difluoromethyl)cyclopropyl)-5-((6-(1-((1r,3s)-3-ethyl-3-(piperidin-1-yl)cyclobutyl)-3,3-dimethyl-2-oxo-2,3-dihydro-1H-pyrrolo[3,2-b]pyridin-6-yl)-3-isopropyl-3H-imidazo[4,5-c]pyridin-4-yl)amino)-4-fluoro-2-methylbenzamide] | 0.3 nM | – |
| CNC(=O)c1cc(Nc2nc(-c3ccc4c(c3)N([C@H]3C[C@@H](N5CCCCC5)C3)C(=O)C43CCN(C(=O)C4CCC4)CC3)cc3ncn(C4CC4)c23)ccc1C [Example 155] | 0.06 nM | – |
| Cc1c(C(=O)NC2(C(F)F)CC2)cc(Nc2nc(-c3cnc4c(c3)N([C@H]3C[C@@](C)(N5CC6CCC5CO6)C3)C(=O)C4(C)C)cc3ncn(C(C)C)c23)c(F)c1F (stereo partly shown) [Example 224, 5-((6-(1-((1s,3s)-3-(2-oxa-5-azabicyclo[2.2.2]octan-5-yl)-3-methylcyclobutyl)-3,3-dimethyl-2-oxo-2,3-dihydro-1H-pyrrolo[3,2-b]pyridin-6-yl)-3-isopropyl-3H-imidazo[4,5-c]pyridin-4-yl)amino)-N-(1-(difluoromethyl)cyclopropyl)-3,4-difluoro-2-methylbenzamide] | 0.06 nM | – |
| Cc1c(C(=O)NCC(F)F)cc(Nc2nc(-c3cnc4c(c3)N([C@H]3C[C@@](C)(N5CCCC6(CC6)C5)C3)C(=O)C4(C)C)cc3ncn(C(C)C)c23)c(F)c1F [Example 284, N-(2,2-difluoroethyl)-5-((6-(3,3-dimethyl-1-((1s,3s)-3-methyl-3-(5-azaspiro[2.5]octan-5-yl)cyclobutyl)-2-oxo-2,3-dihydro-1H-pyrrolo[3,2-b]pyridin-6-yl)-3-isopropyl-3H-imidazo[4,5-c]pyridin-4-yl)amino)-3,4-difluoro-2-methylbenzamide] | – | 0.1 nM |
